Laboratory results from US8048889B2, “3,4-disubstituted coumarin and quinolone compounds” (XTL Biopharmaceuticals Ltd., priority 2005, dated 2011).

Key:
Huh-Luc-Neo cells = test: CellTiter-Glo Cell Viability Assay; format: cell-based, human; conditions: for Toxicity % Inhibition at 50 uM (2 doses): inhibition of cell viability at 50 uM, conditions as in Replicon RNA Assay; for Toxicity % Inhibition at 100 um (1 dose): inhibition of cell viability at 100 um, conditions as in Replicon Luciferase Assay (48 h)
Description: (§1) Day 2 Reagent Preparation and Luciferase Assay: The Bright-Glo Luciferase Assay Buffer (Promega) is thawed and equilibrated to room temperature prior to use. The lyophilized Bright-Glo Luciferase Assay Substrate is equilibrated to room temperature prior to use. 10 ml of Bright-Glo Luciferase Assay Buffer is transferred to 1 vial of Bright-Glo Luciferase Assay Substrate bottle and mixed by gently with a Vortex. 100 ul of Bright-Glo Luciferase Assay reagent (Bright-Glo Luciferase Assay Buffer+Bright-Glo Luciferase Assay Substrate Mixture) is added to each well. The well contents are mixed for 5 min. on an orbital shaker at room temperature to induce cell lysis and the luminescence is then measured using a luminometer. The data is analyzed and IC50s are determined using GraphPad Prism 4 software. Hits validated in the Replicon Luciferase assay have IC50s<8.0 μM and show<30% inhibition of Cell Viability at a compound concentration of 100 μM (Cell Titer Glow Assay, cell viability assay conditions identical to HCV Replicon Luciferase Assay conditions).
(§2) Day 3, Quantitative PCR Based Measurement of HCV RNA (Taqman Assay): Quantitative PCR analysis to measure HCV RNA expression from cDNA synthesized on Day 2 is performed using the ABI 9700 HT Sequence Detection System (Applied Biosystems) as previously described (Lohman et al, Science 285, 110-113, 1999). The data is analyzed and IC50s are determined using GraphPad Prism 4 software. Hits validated in the Replicon RNA Assay have IC50s<8.0 μM and show <30% inhibition of Cell Viability at a compound concentration of 50 μM (Cell Titer Glow Assay, cell viability assay conditions identical to HCV Replicon RNA Assay conditions).
(§3) Day 0, Cell Seeding and Compound Treatment: Huh-Luc-Neo Cells are seeded at 25,000/well in an opaque-walled 96 plate with Growth Medium (DMEM phenol red free+PS+2 mM glutamine; 100 ul/well). The compounds to be tested for inhibition of cell viability are added to the experimental wells (10 μl/well at 10× assay concentration) and the cells are then incubated (5% CO2, 37° C.) for 48 h.
Day 2, Reagent Preparation and Assay: The CellTiter-Glo Buffer is thawed and equilibrated to room temperature prior to use. The lyophilized CellTiter-Glo Substrate is equilibrated to room temperature prior to use. 10 ml of CeliTiter-Glo Buffer is transferred to 1 vial of CellTiter-Glo Substrate and mixed by gently with a Vortex. 100 μl of CellTiter-Glo Assay reagent (CellTiter-Glo Buffer+CellTiter-Glo Substrate Mixture) is added to each well. The well contents are mixed for 5 min. on an orbital shaker at room temperature to induce cell lysis and the luminescence is then measured using a luminometer.

[1] = system: HCV Replicon (HCV IRES driven luciferase reporter in Huh-Luc-Neo cells); test: HCV Replicon Luciferase Assay; format: cell-based; conditions: Hepatitis C virus, 48 h, no unit in table, hit threshold in μM
Description: (§4) The identification of inhibitors of HCV replication and/or proliferation has been facilitated by the development of a cell based system to study HCV replication and assay for HCV inhibitors. Inhibition of HCV replication may be performed using the HCV Replicon Assay developed in the laboratories of Bartenschlager (Lohman et al, Science 285, 110-113, 1999) and Rice (Blight et al, Science 290, 1972-1974, 2000). The assay is performed using the Huh-Luc-Neo cell line (Lohman et al, Science 285, 110-113, 1999). Huh-Luc-Neo cells are a human hepatoma cell line (Huh-7) stably expressing a bi-cistronic subgenomic replicon containing the HCV IRES in which the structural proteins of HCV had been deleted and replaced by a construct containing sequences coding for the firefly luciferase reporter gene, the neomycin selectable marker and the EMCV IRES to direct expression of a truncated HCV genome expressing the […] NS3, NS4A, NS4B, NS5A, and NS5B. HCV targets through which inhibitors could act to inhibit replication include the NS3 protease, the helicase/ATPase, NS5A, the NS5B- RNA dependent RNA polymerase, and the HCV IRES.
(§5) Expression of HCV IRES driven luciferase reporter activity and HCV RNA is measured to obtain indirect and direct measures of replication of HCV RNA respectively. Inhibitors of HCV replication and/or proliferation are determined by initially identifying molecules that inhibit expression of the HCV IRES driven luciferase reporter in this HCV Replicon Luciferase Assay. Cell viability assays and control cell based luciferase assays are then run on hits identified in the HCV Replicon Luciferase Assay to eliminate cytoxic compounds and non-specific compounds which act by inhibiting the luciferase enzyme.
as §3, with “0” for “0,”, “μl/well).” for “ul/well).”, “tested” for “tested for inhibition of cell viability”
as §1

[2] = system: HCV Replicon (HCV RNA in Huh-Luc-Neo cells); test: HCV Replicon RNA Assay (Taqman); format: cell-based, Hepatitis C virus; conditions: Hepatitis C virus, compound added day 0 and day 1, no unit in table, hit threshold in μM
Description: as §4, §5
as §3, with “μl/well).” for “ul/well).”, “tested” for “tested for inhibition of cell viability”, “C.).” for “C.) for 48 h.”
Day 1, Media Change and Compound Treatment: 24 hours after the initial compound treatment the cell culture media is aspirated from the wells and fresh Growth Medium is added (DMEM phenol red free+PS+2 mM glutamine; 100 μl/well). The compounds to be tested are then added to the appropriate experimental wells (10 μl/well at 10 × assay concentration) and the cells are then incubated (5% CO2, 37° C.) for an additional 24 hrs.
Day 2, RNA Isolation and cDNA Synthesis: The cells are washed with 1× Phosphate Buffered Saline (PBS) once.
as §2

Row | SMILES | Toxicity % Inhibition at 50 uM (2 doses) (Huh-Luc-Neo cells) [%] | Toxicity % Inhibition at 100 um (1 dose) (Huh-Luc-Neo cells) [%] | IC50 [1] [µM] | IC50 [2] [µM]
1 | COc1ccc(Nc2c(/C=N/c3ccc(C)cc3)c(=O)oc3ccccc23)cc1 [VQ_36472] | 6.5 | 5.9 | 0.03 | 0.85
2 | COc1ccc(/N=C/c2c(Nc3ccc(OC)cc3)c3ccccc3oc2=O)cc1 [VQ_36473] | 10.7 | 4.3 | 0.02 | 1.71
3 | COc1ccc(Nc2c(/C=N/c3cc(Cl)cc(Cl)c3)c(=O)oc3ccccc23)cc1 [VQ_36594] | 13.7 | 9.1 | 0.74 | > 30
